Measurements published in patent publication US10336765B2, “Dihydropyranopyrimidinone derivatives, and use thereof” (St Pharm Co., LTD, priority 2015, dated 2019).

target: T1, tankyrase 1 (Homo sapiens, UniProt O95271); assay: Analysis of activity of tankyrase 1 (Trevigen kit, ELISA absorbance at 450 nm); type: biochemical; settings: not given
T1 construct: purchased Trevigen 4700-096-K
T1 sequence (O95271 1-1327): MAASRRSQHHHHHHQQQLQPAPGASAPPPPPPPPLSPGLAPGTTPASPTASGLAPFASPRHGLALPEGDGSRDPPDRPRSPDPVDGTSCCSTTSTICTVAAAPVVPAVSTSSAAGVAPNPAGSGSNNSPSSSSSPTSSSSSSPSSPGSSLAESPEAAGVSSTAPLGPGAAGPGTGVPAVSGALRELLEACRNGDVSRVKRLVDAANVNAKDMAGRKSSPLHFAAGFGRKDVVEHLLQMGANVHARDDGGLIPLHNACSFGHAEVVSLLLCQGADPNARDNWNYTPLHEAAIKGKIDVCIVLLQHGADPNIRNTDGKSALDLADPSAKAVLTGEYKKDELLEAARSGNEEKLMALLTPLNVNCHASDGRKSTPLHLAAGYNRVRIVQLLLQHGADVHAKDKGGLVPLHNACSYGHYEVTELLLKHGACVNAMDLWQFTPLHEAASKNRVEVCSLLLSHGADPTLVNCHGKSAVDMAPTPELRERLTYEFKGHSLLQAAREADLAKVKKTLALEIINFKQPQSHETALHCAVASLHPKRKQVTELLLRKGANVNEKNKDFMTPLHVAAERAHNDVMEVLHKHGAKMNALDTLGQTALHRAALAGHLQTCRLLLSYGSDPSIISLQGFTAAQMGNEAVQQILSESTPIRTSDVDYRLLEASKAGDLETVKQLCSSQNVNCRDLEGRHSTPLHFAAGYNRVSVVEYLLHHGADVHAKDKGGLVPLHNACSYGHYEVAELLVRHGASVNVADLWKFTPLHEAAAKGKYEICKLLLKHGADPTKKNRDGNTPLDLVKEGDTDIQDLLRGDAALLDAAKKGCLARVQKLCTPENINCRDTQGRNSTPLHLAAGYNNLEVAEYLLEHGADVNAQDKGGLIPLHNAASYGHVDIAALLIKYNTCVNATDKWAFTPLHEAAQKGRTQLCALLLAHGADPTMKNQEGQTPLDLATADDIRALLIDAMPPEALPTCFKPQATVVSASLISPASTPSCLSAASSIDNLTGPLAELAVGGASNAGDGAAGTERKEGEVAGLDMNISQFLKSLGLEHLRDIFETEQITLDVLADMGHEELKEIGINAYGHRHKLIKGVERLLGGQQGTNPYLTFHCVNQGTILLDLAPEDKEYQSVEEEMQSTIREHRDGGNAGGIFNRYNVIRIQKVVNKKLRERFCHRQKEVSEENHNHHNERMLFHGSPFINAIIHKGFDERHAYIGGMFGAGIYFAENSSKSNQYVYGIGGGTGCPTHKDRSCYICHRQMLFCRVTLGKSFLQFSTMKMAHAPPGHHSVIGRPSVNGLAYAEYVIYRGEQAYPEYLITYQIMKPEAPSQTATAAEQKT
Protocol: Activities of novel compounds synthesized according to Examples 1 to 13 against tankyrase 1 were analyzed using a Trevigen kit (Cat. No. 4700-096-K). Poly PAR histone protein-coated 96-well plate, anti-PAR monoclonal antibody and goat anti-mouse IgG-HRP were used for measurement of absorbance by ELISA method. Specifically, 20×I-PAR assay buffer was diluted to 1× by adding water, and 50 μL of the diluted buffer was added to each well of the 96-well plate followed by reacting at rt for 30 min. Then, the supernatant was completely removed from each well and 10 μL of 1×I-PAR assay buffer and 15 μL of assay substrate were added to each well along with 1 μL of a 50× solution of inhibitors to be tested, which were the compounds obtained in the Examples 1 to 13. 10 mUnits/μL of tankyrase 1 enzyme was diluted 50-fold with 1×I-PAR assay buffer and 25 μL of the diluted enzyme was added to each well and reacted while stirring at rt for 30 min. One without any compound of the present invention was used as a positive control and another containing 1×I-PAR assay buffer with the same volume instead of tankyrase 1 enzyme was used as a negative control.
Upon completion of the reaction, 200 μL of PBSX, which was prepared by adding 0.1% triton X-100 to PBS, was added and removed and this washing process was repeated twice. Washing was repeated twice more using PBS in the same manner. 5× antibody diluent was diluted with distilled water to 1× concentration, 50 μL of the diluted goat anti-mouse IgG-HRP to 1/2000 was added to each well and reacted while stirring at rt for 30 min. Washes were carried out twice using PBSX and PBS, respectively. After adding 50 μL of TACS-sapphire to each well of the plate, the plate was blocked from light to react for 10 min to 15 min and the color of the reaction solution turned blue. To stop the reaction, 50 μL of 0.2N HCl was added to turn the solution yellow. Finally, the absorbance of the resulting solution was measured at 450 nm.

SMILES	IC50
COCCOc1cc(F)c(N2CCN(c3nc4c(c(=O)[nH]3)COCC4)CC2)c(F)c1 [Example 1, 2-(4-(2,6-difluoro-4-(2-methoxyethoxy)phenyl)piperazin-1-yl)-7,8-dihydro-3H-pyrano[4,3-d]pyrimidin-4(5H)-one]	27.2 nM

same assay, conditions: Trevigen kit Cat. No. 4700-096-K; reacted at rt for 30 min; absorbance at 450 nm; read-out: TNKS1 (IC50)

SMILES	IC50
O=c1[nH]c(N2CCN(c3c(F)cc(OCCN4CCCCC4)cc3F)CC2)nc2c1COCC2 [Example 3, 2-(4-(2,6-difluoro-4-(2-(piperidin-1-yl)ethoxy)phenyl)piperazin-1-yl)-7,8-dihydro-3H-pyrano[4,3-d]pyrimidin-4(5H)-one]	40.3 nM
O=c1[nH]c(N2CCN(c3c(F)cc(OCCN4CCOCC4)cc3F)CC2)nc2c1COCC2 [Example 2, 2-(4-(2,6-difluoro-4-(2-morpholinoethoxy)phenyl)piperazin-1-yl)-7,8-dihydro-3H-pyrano[4,3-d]pyrimidin-4(5H)-one]	40.6 nM
COCCOc1cc(F)c(C2CCN(c3nc4c(c(=O)[nH]3)COCC4)CC2)c(F)c1 [Example 11, 2-(4-(2,6-difluoro-4-(2-methoxyethoxy)phenyl)piperidin-1-yl)-7,8-dihydro-3H-pyrano[4,3-d]pyrimidin-4(5H)-one]	74.4 nM
O=C(COc1cc(F)c(N2CCN(c3nc4c(c(=O)[nH]3)COCC4)CC2)c(F)c1)N1CCCCC1 [Example 10, 2-(4-(2,6-difluoro-4-(2-oxo-2-(piperidin-1-yl)ethoxy)phenyl)piperazin-1-yl)-7,8-dihydro-3H-pyrano[4,3-d]pyrimidin-4(5H)-one]	34.2 nM
CC(O)c1cc(F)c(N2CCN(c3nc4c(c(=O)[nH]3)COCC4)CC2)c(F)c1 (stereo not shown) [Example 7, 2-(4-(2,6-difluoro-4-(1-hydroxyethyl)phenyl)piperazin-1-yl)-7,8-dihydro-3H-pyrano[4,3-d]pyrimidin-4(5H)-one]	21.8 nM
CCN(CC)CCOc1cc(F)c(N2CCN(c3nc4c(c(=O)[nH]3)COCC4)CC2)c(F)c1 [Example 12, 2-(4-(4-(2-(diethylamino)ethoxy)-2,6-difluorophenyl)piperazin-1-yl)-7,8-dihydro-3H-pyrano[4,3-d]pyrimidin-4(5H)-one]	33.6 nM
O=c1[nH]c(N2CCN(c3c(F)cc(OCC(O)CO)cc3F)CC2)nc2c1COCC2 (stereo not shown) [Example 5, 2-(4-(4-(2,3-dihydroxypropoxy)-2,6-difluorophenyl)piperazin-1-yl)-7,8-dihydro-3H-pyrano[4,3-d]pyrimidin-4(5H)-one]	26.1 nM
CN1CCN(Cc2cc(F)c(N3CCN(c4nc5c(c(=O)[nH]4)COCC5)CC3)c(F)c2)CC1 [Example 6, 2-(4-(2,6-difluoro-4-((4-methylpiperazin-1-yl)methyl)phenyl)piperazin-1-yl)-7,8-dihydro-3H-pyrano[4,3-d]pyrimidin-4(5H)-one]	36.8 nM
O=c1[nH]c(N2CCN(c3c(F)cc(OCCO)cc3F)CC2)nc2c1COCC2 [Example 4, 2-(4-(2,6-difluoro-4-(2-hydroxyethoxy)phenyl)piperazin-1-yl)-7,8-dihydro-3H-pyrano[4,3-d]pyrimidin-4(5H)-one]	26.6 nM
COCCOc1cc(F)c(C2(O)CCN(c3nc4c(c(=O)[nH]3)COCC4)CC2)c(F)c1 [Example 8, 2-(4-(2,6-difluoro-4-(2-methoxyethoxy)phenyl)-4-hydroxypiperidin-1-yl)-7,8-dihydro-3H-pyrano[4,3-d]pyrimidin-4(5H)-one]	162 nM
Cn1nnc(C2CCN(c3nc4c(c(=O)[nH]3)COCC4)CC2)n1 [Example 9, 2-(4-(2-methyl-2H-tetrazol-5-yl)piperidin-1-yl)-7,8-dihydro-3H-pyrano[4,3-d]pyrimidin-4(5H)-one]	803 nM
O=c1[nH]c(N2CCN(c3c(F)cc(OCCn4ccnc4)cc3F)CC2)nc2c1COCC2 [Example 13, 2-(4-(4-(2-(1H-imidazol-1-yl)ethoxy)-2,6-difluorophenyl)piperazin-1-yl)-7,8-dihydro-3H-pyrano[4,3-d]pyrimidin-4(5H)-one]	25.4 nM
